Assay results taken from US20050020662A1, “Inhibition of PKC to treat permability failure” (Joslin Diabetes Center, Inc., a Massachusetts corporation, priority 1999, published 2005).

Tested on: PKC
Test: PKC activity of primary human mesothelial cells
Format: cell-based
Details: human mesothelial cells exposed to vitamin E, low or high (150 mM) glucose, presence or absence of PMA (FIG. 2)
Description: The PKC activity was determined in the presence or absence or PMA, an activator of PKC. […] The mesothelial cells were exposed to low or high (150 mM) levels of glucose in the presence or absence of PMA, an activator of PKC, and the presence or absence of vitamin E, a PKC inhibitor. […] The PKC activity was determined in the presence or absence or PMA, an activator of PKC. […] These concentrations of glucose are standard for dialysis. […] It has been reported that activation of these pathways increases fibrosis. […] Therefore, inhibition of PKC can decrease fibrosis and reduce or prevent permeability failure of the peritoneal membrane.

Which PKC activity does the source give for vitamin E here?
The PKC activity was “decrease of PKC activity”.
